#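 Cells were grown in 96-well plates and exposed to each compound for 48 hours at five concentrations; endpoints were interpolated linearly between bracketing concentrations, or set to the highest concentration if not reached. The concentration for 50% growth inhibition is given as GI50.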 Calls of active or inactive are those of the source. Rule as the data show it: active = GI50 up to about 1.1 µM and inactive = higher.
# How the values were obtained:
# Assay in all cases: DTP human tumour cell line panel, 48 h
# [1] = tested on: CCRF-CEM
# [2] = tested on: COLO 205
# [3] = tested on: HOP-62
# [4] = tested on: HT-29
# [5] = tested on: IGROV-1
# [6] = tested on: KM12
# [7] = tested on: NCI-H23
# [8] = tested on: NCI-H460
# [9] = tested on: SF-268
# [10] = tested on: SF-295
# [11] = tested on: SK-MEL-28
# [12] = tested on: SNB-75
# [13] = tested on: TK-10
# [14] = tested on: UACC-257
# [15] = tested on: SR
Structure (SMILES),GI50 [1],GI50 [2],GI50 [3],GI50 [4],GI50 [5],GI50 [6],GI50 [7],GI50 [8],GI50 [9],GI50 [10],GI50 [11],GI50 [12],GI50 [13],GI50 [14],GI50 [15]
CCO/C([O-])=C(\C(=O)c1ccc([N+](=O)[O-])cc1)[n+]1c(C)n(C)c2ccccc21,> 100 µM (inactive),> 100 µM (inactive),> 100 µM (inactive),> 100 µM (inactive),> 100 µM (inactive),> 100 µM (inactive),> 100 µM (inactive),> 100 µM (inactive),> 100 µM (inactive),> 100 µM (inactive),> 100 µM (inactive),> 100 µM (inactive),> 100 µM (inactive),> 100 µM (inactive),–
O=C(c1ccccc1)C1(Br)S(=O)(=O)OCCOS1(=O)=O,> 100 µM (inactive),> 100 µM (inactive),> 100 µM (inactive),> 100 µM (inactive),> 100 µM (inactive),–,> 100 µM (inactive),> 100 µM (inactive),> 100 µM (inactive),> 100 µM (inactive),> 100 µM (inactive),> 100 µM (inactive),> 100 µM (inactive),> 100 µM (inactive),> 100 µM (inactive)
Cc1n[nH]c(=S)n(C)c1=S,> 100 µM (inactive),> 100 µM (inactive),> 100 µM (inactive),–,> 100 µM (inactive),–,> 100 µM (inactive),> 100 µM (inactive),> 100 µM (inactive),> 100 µM (inactive),> 100 µM (inactive),> 100 µM (inactive),> 100 µM (inactive),–,–
N#Cc1c(C[n+]2ccccc2)c2ccccc2oc1=O,> 100 µM (inactive),> 100 µM (inactive),> 100 µM (inactive),> 100 µM (inactive),> 100 µM (inactive),> 100 µM (inactive),> 100 µM (inactive),> 100 µM (inactive),> 100 µM (inactive),> 100 µM (inactive),> 100 µM (inactive),> 100 µM (inactive),–,> 100 µM (inactive),> 100 µM (inactive)
Nc1ccc(C(=O)N/C(=C\c2ccc3c(c2)OCO3)c2nc3ccccc3s2)cc1,1.89 µM (inactive),18.4 µM (inactive),–,12.6 µM (inactive),14.6 µM (inactive),14.8 µM (inactive),> 10 µM (inactive),–,11.9 µM (inactive),16.7 µM (inactive),13.2 µM (inactive),–,19.8 µM (inactive),–,6.01 µM (inactive)
CCOC(=O)C(=O)Nc1c(C)cccc1C,–,> 100 µM (inactive),> 100 µM (inactive),> 100 µM (inactive),> 100 µM (inactive),> 100 µM (inactive),> 100 µM (inactive),> 100 µM (inactive),> 100 µM (inactive),> 100 µM (inactive),> 100 µM (inactive),> 100 µM (inactive),> 100 µM (inactive),> 100 µM (inactive),–
COc1cc([C@@H]2c3cc4c(cc3[C@@H](NC(=O)c3ccc([N+](=O)[O-])cc3)C3COC(=O)[C@@H]32)OCO4)cc(OC)c1O (stereo partly specified),0.124 µM (active),2.13 µM (inactive),0.128 µM (active),1.58 µM (inactive),0.261 µM (active),1.08 µM (active),0.258 µM (active),< 0.01 µM (active),1.6 µM (inactive),0.249 µM (active),1.97 µM (inactive),0.809 µM (active),2.03 µM (inactive),3.16 µM (inactive),–
COc1cc(/C=C/c2ccc(OC)c(O)c2)cc(OC)c1,3.15 µM (inactive),26.5 µM (inactive),4.2 µM (inactive),16.7 µM (inactive),18.7 µM (inactive),12.4 µM (inactive),3.44 µM (inactive),3.65 µM (inactive),8.55 µM (inactive),1.96 µM (inactive),6.08 µM (inactive),–,37.3 µM (inactive),5.86 µM (inactive),–
FC(F)(F)c1ccc(C2SCc3nc4ccccc4n32)cc1 (stereo unspecified),31.4 µM (inactive),> 100 µM (inactive),–,> 100 µM (inactive),14.2 µM (inactive),50 µM (inactive),5.89 µM (inactive),–,95.3 µM (inactive),> 100 µM (inactive),> 100 µM (inactive),60 µM (inactive),> 100 µM (inactive),6.56 µM (inactive),16.2 µM (inactive)
CN(C)C(=S)/N=c1\ssc(=S)n1Cc1ccncc1,5.81 µM (inactive),> 100 µM (inactive),24.9 µM (inactive),–,17.9 µM (inactive),4.79 µM (inactive),23.9 µM (inactive),13.8 µM (inactive),24.3 µM (inactive),29.8 µM (inactive),35.1 µM (inactive),13.6 µM (inactive),25 µM (inactive),26.7 µM (inactive),6.28 µM (inactive)
Cc1cc2nc3c(C(OC4OC(CO)C(O)C(O)C4O)C(O)CO)nn(-c4ccc(F)cc4)c3nc2cc1C (stereo unspecified),> 100 µM (inactive),–,> 100 µM (inactive),> 100 µM (inactive),–,> 100 µM (inactive),> 100 µM (inactive),> 100 µM (inactive),> 100 µM (inactive),> 100 µM (inactive),> 100 µM (inactive),80.7 µM (inactive),> 100 µM (inactive),> 100 µM (inactive),> 100 µM (inactive)
O=C(NCCNCCO)c1cccc2ccc(-c3ccccc3)nc12,3.4 µM (inactive),3.1 µM (inactive),10.3 µM (inactive),4.13 µM (inactive),3.12 µM (inactive),5.68 µM (inactive),4.68 µM (inactive),2.02 µM (inactive),6.53 µM (inactive),5.58 µM (inactive),10.4 µM (inactive),10.4 µM (inactive),1.44 µM (inactive),3.47 µM (inactive),–
CCOc1ccc2c(c1)[n+]([O-])c(-c1ccc(Cl)cc1)c(N)[n+]2[O-],–,> 100 µM (inactive),> 100 µM (inactive),> 100 µM (inactive),> 100 µM (inactive),> 100 µM (inactive),> 100 µM (inactive),> 100 µM (inactive),> 100 µM (inactive),> 100 µM (inactive),> 100 µM (inactive),85.1 µM (inactive),–,> 100 µM (inactive),> 100 µM (inactive)
NC1=NN(c2ccccc2)C(=O)C1/C(=N\NC(=O)c1cc2ccccc2cc1O)C(=O)Nc1ccc(Cl)cc1 (stereo unspecified),3.73 µM (inactive),23.1 µM (inactive),36.6 µM (inactive),42.5 µM (inactive),20 µM (inactive),27.9 µM (inactive),24.7 µM (inactive),13.5 µM (inactive),12.7 µM (inactive),35.5 µM (inactive),25.1 µM (inactive),4.72 µM (inactive),37.1 µM (inactive),28.6 µM (inactive),–
O=[N+]([O-])c1ccc2nc(/C(=N/Nc3ccccc3)C(O)c3ccc(C(O)/C(=N\Nc4ccccc4)c4nc5ccc([N+](=O)[O-])cc5nc4O)cc3)cnc2c1 (stereo unspecified),39.6 µM (inactive),> 100 µM (inactive),28.5 µM (inactive),> 100 µM (inactive),> 100 µM (inactive),37.1 µM (inactive),> 100 µM (inactive),18.1 µM (inactive),> 100 µM (inactive),> 100 µM (inactive),> 100 µM (inactive),–,> 100 µM (inactive),> 100 µM (inactive),33.7 µM (inactive)
CCCCc1c2c([n+]([O-])c3c1CCCC3)CCCC2,19.3 µM (inactive),> 100 µM (inactive),> 100 µM (inactive),> 100 µM (inactive),43.1 µM (inactive),> 100 µM (inactive),> 100 µM (inactive),> 100 µM (inactive),66.4 µM (inactive),28 µM (inactive),32.8 µM (inactive),–,> 100 µM (inactive),40.6 µM (inactive),29.6 µM (inactive)
Cc1cc([N+](=O)[O-])ccc1Sc1c2ccccc2nc2cc(Cl)ccc12,28.1 µM (inactive),38.4 µM (inactive),73.5 µM (inactive),–,46.2 µM (inactive),18.6 µM (inactive),28.8 µM (inactive),36.6 µM (inactive),29.6 µM (inactive),45.8 µM (inactive),> 100 µM (inactive),30.8 µM (inactive),55.6 µM (inactive),73.6 µM (inactive),26.9 µM (inactive)
N#Cc1c2ccccc2c(Cc2ccc3c(c2)OCCOCCOCCOCCOCCO3)c2ccccc12,3.21 µM (inactive),–,10.3 µM (inactive),–,4.34 µM (inactive),5.5 µM (inactive),11.4 µM (inactive),6.7 µM (inactive),5.28 µM (inactive),8.69 µM (inactive),3.28 µM (inactive),–,5.01 µM (inactive),9.27 µM (inactive),24.5 µM (inactive)
CC1=C(c2nc3ccccc3s2)C(=O)OC1(C)C,> 100 µM (inactive),> 100 µM (inactive),> 100 µM (inactive),> 100 µM (inactive),–,> 100 µM (inactive),> 100 µM (inactive),> 100 µM (inactive),> 100 µM (inactive),> 100 µM (inactive),> 100 µM (inactive),86.5 µM (inactive),–,> 100 µM (inactive),> 100 µM (inactive)
CC1(C)C(=O)C(=Cc2ccco2)C1=O,> 100 µM (inactive),> 100 µM (inactive),–,> 100 µM (inactive),> 100 µM (inactive),> 100 µM (inactive),> 100 µM (inactive),> 100 µM (inactive),> 100 µM (inactive),> 100 µM (inactive),> 100 µM (inactive),> 100 µM (inactive),> 100 µM (inactive),> 100 µM (inactive),> 100 µM (inactive)

# Source: ChEMBL document CHEMBL1201862, “PubChem BioAssay data set” (2004)
